Common to all, as to test: relative cell viability vs DMSO control (% of DMSO control); higher = less growth inhibition (higher viability)
What all share (conditions): treatment time: 72 h

For one assay, the system named is HCC1806. The procedure:
(§1)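 Breast cancer cell lines (BT-474, HCC1806, SUM-159, SKBR-3) were seeded in triplicate in 96-well plates and treated 24 h after seeding with kinase inhibitors at 8 doses (3 nM to 30 uM). After 72 h, viability was read by CellTiter-Glo luminescence. Values were averaged over replicates and normalised to DMSO-only (0.1%) controls on each plate to give relative viability (% of DMSO).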

The next assay has as its system BT-474. As for the experimental part: as §1
A further assay deals with SKBR3. The procedure: as §1
A further assay concerns SUM159. The procedure: as §1

For five compounds, relative cell viability results are on record in the supplement of paper PMC10657565.

± gives the uncertainty stated by the source.

On to `CNS(=O)(=O)Nc1nccc(Cc2c(C)c3ccc(Oc4ncccn4)cc3oc2=O)c1F`, for which the relative cell viability in the assay on HCC1806 (0.003 µM) is 90 ± 7.3; in the assay with HCC1806 (0.01 µM), 86.2 ± 1.2; in the assay on HCC1806 (0.03 µM), 78.5 ± 0.86; in the assay on HCC1806 (0.1 µM), 77.8 ± 2.5; with HCC1806 (0.3 µM), 74.9 ± 3.6; with HCC1806 (1 µM), 75.1 ± 5.3. Besides, the relative cell viability in the assay on HCC1806 (3 µM) was 73.7 ± 3.6; in the assay on HCC1806 (30 µM), 72.8 ± 4.9; in the assay with BT-474 (0.003 µM) it was 98.4 ± 1.4; in the assay with BT-474 (0.01 µM) it was 94.3 ± 1.5; in the assay on BT-474 (0.03 µM), 97.2 ± 2.2; in the assay with BT-474 (0.1 µM), 94.9 ± 5.3. The relative cell viability in the assay on BT-474 (0.3 µM) came out at 92.8 ± 2.1; in the assay with BT-474 (1 µM), 87.6 ± 5.1; in the assay with BT-474 (3 µM), 87.6 ± 1.8; with BT-474 (30 µM), 41.6 ± 2.2.

As for `Cc1nc(Nc2n[nH]c3c2CN(C(=O)N[C@H](CN(C)C)c2ccccc2)C3(C)C)c2sccc2n1`, the relative cell viability stood at 66.9 ± 11 in the assay with HCC1806 (0.003 µM); 46.3 ± 6 in the assay on HCC1806 (0.01 µM); 36.2 ± 1.9 with HCC1806 (0.03 µM); 32.5 ± 1.8 in the assay on HCC1806 (0.1 µM); 29.6 ± 1.5 in the assay on HCC1806 (0.3 µM); 19.4 ± 1.2 in the assay on HCC1806 (1 µM). Further, the relative cell viability with HCC1806 (3 µM) stood at 4.75 ± 0.17; in the assay on HCC1806 (30 µM), 2.8 ± 0.096; in the assay with BT-474 (0.003 µM), 96.3 ± 2.5; in the assay with BT-474 (0.01 µM), 92.7 ± 4.8; in the assay with BT-474 (0.03 µM), 89.7 ± 3.5; with BT-474 (0.1 µM), 86.5 ± 2.5. The relative cell viability with BT-474 (0.3 µM) is 82.6 ± 5.6; in the assay with BT-474 (1 µM) it was 70 ± 6.6; in the assay with BT-474 (3 µM) it was 44 ± 2.3; with BT-474 (30 µM), 21.3 ± 0.7.

As to `COCc1c(-c2ccc(NC(=O)Nc3cc(C(F)(F)F)ccc3F)c(F)c2)c2c(N)ncnn2c1CN1CCOCC1` [ACTB-1003], the relative cell viability in the assay on SKBR3 (0.003 µM) was 105 ± 0.92; in the assay with SKBR3 (0.01 µM) it was 104 ± 2.9; in the assay on SKBR3 (0.03 µM), 107 ± 3.9; in the assay on SKBR3 (0.1 µM), 106 ± 2.7; in the assay on SKBR3 (0.3 µM), 107 ± 3.3; in the assay with SKBR3 (1 µM) it was 98.8 ± 2. Besides, the relative cell viability in the assay with SKBR3 (3 µM) worked out at 78.2 ± 4; in the assay on SKBR3 (30 µM), 3.14 ± 0.2; in the assay on SUM159 (0.003 µM), 101.4 ± 0.75; in the assay with SUM159 (0.01 µM) it was 99.02 ± 0.34; in the assay on SUM159 (0.03 µM), 96.9 ± 4.4; in the assay with SUM159 (0.1 µM) it was 98.6 ± 1.8. For the same compound, the relative cell viability in the assay on SUM159 (0.3 µM) stood at 91.7 ± 2.9; in the assay on SUM159 (1 µM) it was 73.4 ± 5.4; in the assay on SUM159 (3 µM), 39.5 ± 3.3; in the assay on SUM159 (30 µM) it was 0.887 ± 0.066.

Take `Cn1nccc1Nc1nccc(-c2ccn([C@H](CO)c3ccc(Cl)c(F)c3)c(=O)c2)n1` [GDC-0994]: the relative cell viability in the assay with HCC1806 (0.003 µM) came to 97.15 ± 0.91; with HCC1806 (0.01 µM), 94.8 ± 2.7; in the assay on HCC1806 (0.03 µM), 92 ± 4.1; in the assay with HCC1806 (0.1 µM), 88.3 ± 6.2; in the assay on HCC1806 (0.3 µM) it was 81.5 ± 3.2; with HCC1806 (1 µM), 81.6 ± 4. For the same compound, the relative cell viability with HCC1806 (3 µM) is 84.9 ± 3.7; in the assay with HCC1806 (30 µM) it was 73.5 ± 2.6; with BT-474 (0.003 µM) it was 102 ± 6.2; in the assay on BT-474 (0.01 µM), 101 ± 6.1; in the assay on BT-474 (0.03 µM), 97.6 ± 7.6; in the assay on BT-474 (0.1 µM) it was 94.3 ± 3.5. Also, the relative cell viability stood at 95.3 ± 5 in the assay with BT-474 (0.3 µM), 97.8 ± 9.2 in the assay with BT-474 (1 µM), 101 ± 11 with BT-474 (3 µM) and 88.4 ± 6.7 in the assay on BT-474 (30 µM).

Regarding `C[C@]12O[C@H](C[C@]1(O)CO)n1c3ccccc3c3c4c(c5c6ccccc6n2c5c31)CNC4=O` [Lestaurtinib], the relative cell viability with HCC1806 (0.003 µM) is 83.42 ± 0.79; in the assay on HCC1806 (0.01 µM), 63.1 ± 3; in the assay with HCC1806 (0.03 µM) it was 43.6 ± 5.3; with HCC1806 (0.1 µM) it was 16 ± 0.76; in the assay on HCC1806 (0.3 µM), 7.81 ± 0.93; in the assay with HCC1806 (1 µM) it was 3.73 ± 0.28. In addition, the relative cell viability with HCC1806 (3 µM) amounted to 2.9 ± 0.12; in the assay with HCC1806 (30 µM) it was 0.918 ± 0.075; in the assay with BT-474 (0.003 µM) it was 87.8 ± 1.5; with BT-474 (0.01 µM), 77.2 ± 3.4; in the assay with BT-474 (0.03 µM) it was 73.6 ± 4.1; in the assay on BT-474 (0.1 µM) it was 66.8 ± 7.2. Further, the relative cell viability in the assay on BT-474 (0.3 µM) was 59.5 ± 2.3; with BT-474 (1 µM), 49.5 ± 2.6; with BT-474 (3 µM) it was 37.9 ± 0.67; in the assay on BT-474 (30 µM) it was 1.31 ± 0.099.
